The source made the active and inactive calls. The calls are words filed in the database; no cut-off is given here.
Molecular target: Hydroxycarboxylic acid receptor 3 (Homo sapiens) (UniProt P49019)
Experiment: Agonist activity at human cloned GPR109b receptor at 100 uM by forskolin-stimulated cAMP production test
Type: functional

Chain of Hydroxycarboxylic acid receptor 3 (Homo sapiens) (P49019 whole entry): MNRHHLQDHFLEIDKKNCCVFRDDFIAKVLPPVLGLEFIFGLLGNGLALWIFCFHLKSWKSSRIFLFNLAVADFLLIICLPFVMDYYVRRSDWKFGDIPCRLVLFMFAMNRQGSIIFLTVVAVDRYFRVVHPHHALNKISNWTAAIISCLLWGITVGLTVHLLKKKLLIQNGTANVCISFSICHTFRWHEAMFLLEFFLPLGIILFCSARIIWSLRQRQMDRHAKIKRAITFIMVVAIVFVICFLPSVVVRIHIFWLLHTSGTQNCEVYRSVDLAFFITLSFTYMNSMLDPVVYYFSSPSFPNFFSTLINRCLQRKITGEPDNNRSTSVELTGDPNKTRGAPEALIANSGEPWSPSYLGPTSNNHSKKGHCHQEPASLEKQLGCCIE

Activity: inactive
Compound: Cc1cc(C(=O)O)n[nH]1
